A melting point compilation (Tetko et al.)

Row | Compound | melting point [°C]
1 | c1ccc2c(c1)[nH]c1cnccc12 | 199 to 201
2 | CCOC(=O)c1c(C)n[nH]c1N | 108
3 | Cc1nc(O)cc(O)n1 | 360
4 | O=C1NC2NC(=O)NC2N1 (centres undefined) | 300
5 | C=C(C)C(=O)O | 16
6 | CSc1ccc(C#N)cc1 | 62
7 | CCOC(=O)C1(c2ccccc2)CCN(CCc2ccc(N)cc2)CC1 | 83
8 | N#CC(C#N)=c1ccc(=C(C#N)C#N)cc1 | 287 to 289
9 | COP(=S)(OC)Oc1ccc(Sc2ccc(OP(=S)(OC)OC)cc2)cc1 | 30.3
10 | COc1cc(OC)n2nc(S(=O)(=O)Nc3c(Cl)ccc(C)c3Cl)nc2n1 | 211
11 | Fc1cc(Br)c(F)cc1Br | 62
12 | CC=CC(C)C(C)C=CC (centres undefined) | -64.8
13 | CC(=NO)c1cccnc1 | 103 to 105
14 | Nc1ncn[nH]1 | 159
15 | O=C(NC(=O)c1ccccc1Cl)Nc1ccc(OC(F)(F)F)cc1 | 195
16 | O=C=Nc1ccc(-c2ncccn2)cc1 | 85.5 to 87.5
17 | CCOC=C(C#N)C(=O)OCC | 49.5
18 | C1CCCCCC2OC2CCCC1 (centres undefined) | -7
19 | ClC(Cl)C(Cl)C(Cl)Cl | -10
20 | Oc1c(Br)cc(Br)c(Br)c1Br | 114
21 | Cc1ccc(S(=O)(=O)Cl)cc1[N+](=O)[O-] | 38 to 40
22 | NNC(=O)C1CCCCC1 | 153 to 155
23 | Cc1ccnc(Cl)n1 | 47
24 | C=C1CC(=O)O1 | -6.5
25 | N#Cc1ccc(Cl)c(Cl)c1 | 72
26 | O=P(OCC(Br)CBr)(OCC(Br)CBr)OCC(Br)CBr (centres undefined) | 5.5
27 | O=C1C2CCCC1CCC2 | 153 to 157

Row | Compound | melting point [°C]
28 | O=C(O)C(F)F | -1
29 | Oc1c(Br)c(Br)c(O)c(Br)c1Br | 255 to 260
30 | Cc1ccc(N2CSc3nnc(-c4ccc([N+](=O)[O-])cc4)n3C2)cc1 | 226
31 | CC(C)(C)[N+](=O)[O-] | 26.2
32 | S=C(SSC(=S)N1CCCCC1)N1CCCCC1 | 138
33 | CCCCCCCCCCNCCCCCCCCCC | 40
34 | CN(N=Cc1ccc(Br)cc1)P(=O)(N1CC1)N1CC1 | 118
35 | O=C(O)CCCCCCCC(O)C(O)CCCCCCO (centres undefined) | 100
36 | C=C(Cl)C#N | -65
37 | Fc1ccc(F)c(F)c1F | -42
38 | N=C(N)SCCCS(=O)(=O)O | 240 to 248
39 | NC(=O)OCC(O)c1ccccc1 (centres undefined) | 112
40 | c1csc(SSc2cccs2)c1 | 55
41 | C[Si](C)(C)O[Si](C)(C)C | -59
42 | O=[N+]([O-])C=Cc1c(F)cccc1Cl | 63
43 | C(=N\CC/N=C/c1ccc2c(c1)OCO2)/c1ccc2c(c1)OCO2 | 178
44 | O=C1OCC(O)C1O (centres undefined) | 99 to 102
45 | Nc1c([N+](=O)[O-])cc(F)c(F)c1F | 46 to 48
46 | O=C(Cl)c1cc([N+](=O)[O-])cc([N+](=O)[O-])c1 | 74
47 | COc1c(C)c(C)c(OC)c(Br)c1C | 72
48 | O=C1CC2OCC=C3CN4CCC56c7ccccc7N1C5C2C3CC46 (centres undefined) | 287
49 | S=C1SCCS1 | 35
50 | CCC(C)Cn1c(O)nnc1S (centres undefined) | 147 to 151
51 | CC1=CC(=O)CCC1 | -21
52 | O=C1N[C@H]2CC[C@@H]1C2 | 76.2
53 | CCOc1cc2c(cc1OCC)C(C)=NCC2 | 68 to 71

The remaining lines, values ahead:

Row | melting point [°C] | Compound
54 | 154 to 157 | CCOC(=O)c1cc2cc(C=O)c(N)cc2[nH]c1=O
55 | 128 to 130 | CC(=O)OC1OC(COC(=O)c2ccccc2)C(OC(=O)c2ccccc2)C1OC(=O)c1ccccc1 (centres undefined)
56 | 297 to 298 | O=C(O)c1cc(O)c2cccc(O)c2n1
57 | 179 | CC(=O)n1c(-c2ccccc2)c(O)c2ccc([N+](=O)[O-])cc21
58 | 119 | Cc1ccccc1C(=O)Cc1ccccc1C(=O)N(C)c1ccccc1
59 | 70 to 71 | Nc1ccccc1CN1CCOCC1
60 | 205 | CC1=C(C(=O)OC(C)C)C(c2ccco2)NC(=O)N1 (centres undefined)
61 | 103 | CC(=O)CCc1oc2c([N+](=O)[O-])cccc2c1-c1ccc(C)o1
62 | 251 | Brc1cc2ccc1CCc1ccc(c(Br)c1)CC2
63 | 96 to 98 | O=C(Cl)c1csc(-c2ccc(C(F)(F)F)cc2)n1
64 | 92 | CC(C)=C1C2C=CC1c1ccccc12
65 | 147 | CCC(Cc1c(I)cc(I)c(O)c1I)C(=O)O (centres undefined)
66 | 80 to 90 | O=C(Cl)c1nnc(-c2ccccc2)o1
67 | 261 | C=C1C(=O)C23C4CC5C(C)(C)CCC(O)C5(C(OC)O4)C2C(O)CC1C3O (centres undefined)
68 | 236 | O=C(O)c1cc2ccsc2s1
69 | 128 to 133 | O=Cc1ccccc1-c1ccccc1C(=O)O
70 | 129 to 133 | O=C(O)c1cccnc1N1CCOCC1
71 | 283 | Cn1c(=O)c(C2=NNC(=O)C2=Cc2ccccc2)c(O)c2ccccc21
72 | 68 | CCOC(=O)C(C)(C#N)c1ccccc1[N+](=O)[O-] (centres undefined)
73 | 117 | CC(C)c1cc(C(=O)O)c(O)c(C(C)C)c1
74 | 252 | CC(=O)Nc1ccccc1/C=C/c1cc(C)c([N+](=O)[O-])cc1[N+](=O)[O-]
75 | 239 to 242 | Cc1[nH]c2ccc(C(=O)O)cc2c1C
76 | 160 | O=c1oc2cc(O)ccc2s1
77 | 132 | CCOc1ccc2cc(O)c(O)cc2c1
78 | 25 | CCCCN(CCCC)C(=O)COC(=O)c1ccccc1
79 | 79 | Cc1ccc(Br)cc1O

Row | melting point [°C] | Compound
80 | 135 to 137 | O=C(O)C(CCBr)(c1ccccc1)c1ccccc1
81 | 180 to 181 | CC1=NN(c2ccccc2)C(=O)C1=CC1C(=O)N(c2ccccc2)N=C1C (centres undefined)
82 | 58 | O=C(OCC(=O)N1CCCC1)c1ccccc1
83 | 62 | OC1CCN(Cc2ccccc2)CC1
84 | 234 | CCOC(=O)C1C(c2ccccc2)C(C(=O)OCC)C(O)(C(F)(F)F)NC1(O)C(F)(F)F (centres undefined)
85 | 211 | CCOc1ccc(C(NC(=O)c2ccccc2)NC(=O)c2ccccc2)cc1OC
86 | 66 to 67 | COc1ccccc1-c1nc(CCl)no1
87 | 265 | Cc1ccnc2c1NC(=O)c1cccnc1N2C1CC1
88 | 162 | C[C@]12CCC(=O)C=C1C(=O)C[C@@H]1[C@@H]2CC[C@@]2(C)[C@H]1CCC21OCCO1
89 | 112 | C/C(=N\NC(N)=O)C(=O)C(C)Cc1ccccc1 (centres undefined)
90 | 102 | Cc1cc([N+](=O)[O-])ccc1I
91 | 44 | CCOC(=O)c1ccc(O)c(OC)c1
92 | 168 to 172 | CC(=O)Nc1ccc(Cl)c(N)c1
93 | 40 | Fc1cc(Br)ccc1-c1ccccc1
94 | 59 to 61 | Brc1cccc(-c2cnco2)c1
95 | 127 | CC12CCC(C(=CC(Cc3ccccc3)C(=O)O)C1=O)C2(C)C (centres undefined)
96 | 226 | CC(C)Nc1cccnc1N1CCN(C(=O)c2cc3cc(NS(C)(=O)=O)ccc3[nH]2)CC1
97 | 130 to 133 | OC(C#CC#CC(O)(c1ccccc1)c1ccccc1Cl)(c1ccccc1)c1ccccc1Cl (single isomer, unassigned; (+))
98 | 291 | O=C(O)c1ccc2c(c1)C(=O)c1ccccc1C2=O
99 | 235 | COc1cc(NS(C)(=O)=O)ccc1Nc1c2ccccc2nc2ccccc12
100 | 174 | CC12CCC(C=CC1=O)C2(C)C (centres undefined)
101 | 122 | Cc1ccc(C(=O)C=Cc2ccc(Cl)cc2)cc1
102 | 150 to 154 | O=C1CC(c2ccccc2)=NO1
103 | 87 to 89 | O=S(=O)(Cl)c1ccc(-c2ccccn2)s1
104 | 113 to 117 | NC(=S)Nc1cccc(F)c1
105 | 68 | CCCCCc1ccc(C(C)=NO)cc1

Row | melting point [°C] | Compound
106 | 137 | CC(C)(C)OC(=O)NC(Cc1cccnc1)C(=O)O (centres undefined)
107 | 195 to 198 | O=C(O)c1cscc1Sc1ccc(Cl)cc1
108 | 75 to 78 | CC(C)CC(O)C(=O)O (racemic)
109 | 12 | Cc1cc(C)c2cc(C)ccc2c1
110 | 261 to 264 | Nc1nc(-c2ccc3c(c2)Cc2ccccc2-3)cs1
111 | 222 | CC(=O)OCC(=O)C1(O)CCC2C3CCC4=CC(=O)CCC4(C)C3C(=O)CC21C (centres undefined)
112 | 101 to 105 | OCc1ccc(-c2ccccc2)cc1
113 | 36 | CN(C)c1ccc(F)cc1
114 | 230 | CCC1CC(N)(C(=O)O)CC(C)(C)N1O (centres undefined)
115 | 92 to 93 | CCOC(=O)c1c(-c2ccccc2)csc1NC(=O)C(Cl)Cl
116 | 132 to 134 | CCOC(=O)CCC(C)C1CCC2C3C(=O)C(Br)C4CC(OC(C)=O)CCC4(C)C3CC(OC(C)=O)C12C (centres undefined)
117 | 90 | O=C(C=Cc1ccccc1)c1ccccc1O
118 | 120 to 121 | COC(=O)c1cccc([N+](=O)[O-])c1NC(C)=O
119 | 265 | CC(=O)C1(O)CCC2C3CCC4CC(O)CCC4(C)C3CCC21C (centres undefined)
120 | 97 to 98 | CC(C)(Oc1ccc(C(C)(C)C)cc1)C(=O)O
121 | 77.5 | COc1ccc2c(OC(C)=O)c(OC)c(OC)c(OC(C)=O)c2c1
122 | 97 to 98 | CC(=O)c1cc2cc(Cl)ccc2o1
123 | 120 | CCN(CC)CCCN(c1ccccc1)C1Cc2ccccc2C1
124 | 312 | CC(N)(Cc1ccc(O)cc1)C(=O)O (centres undefined)
125 | 177 | [O-][P+](c1ccccc1)(c1ccccc1)C1C=C(c2ccccc2)OC2=C1CCCC2 (centres undefined)
126 | 106 | O=C(O)c1cc(F)c(F)cc1Cl
127 | 198 | Cc1ccc(C)c(C(=O)N(NC(=O)c2ccccc2)C(C)(C)C)c1
128 | 154 to 156 | O=C(O)c1cccc(-n2cccn2)c1
129 | 51.6 | CCc1cc(C)cc(O)c1
